Data reported in patent US5521069A, “Genomic DNA exons having exons encoding human pituitary adenylate cyclase activity peptide with 38 amino acids residues(PACAP38) and a promoter thereof” (Takeda Chemical Industries, Ltd., priority 1990, dated 1996).
Where no end group is shown, it is not given here.

What was measured:
[1] = Hypotensive activity in anesthetized male Wistar rats; type: in vivo, rat; details: nembutal anesthesia
Procedure: Using male Wistar rats having a body weight of 350 g under nembutal anesthesia, the hypotensive activity was measured.

rat pituicytes = assay: Adenylate Cyclase Stimulating Test in Rat Pituicyte Culture; type: cell-based; details: Experiment 2, blank 1.35 ± 0.05
Source text: The amino acid sequence of sheep PACAP38 is believed to be identical to that of human PACAP38. […] The minimum effective amount was 10^-12 M, and it was shown that the activity increased with increasing concentration.

Substance	Hypotensive activity (decrease from normal value) ([1]; dosage 0.3 n mole/kg) [mm Hg]	Hypotensive activity (decrease from normal value) ([1]; dosage 1.0 n mole/kg) [mm Hg]	Hypotensive activity (decrease from normal value) ([1]; dosage 3.0 n mole/kg) [mm Hg]	cAMP (M ± SEM) (rat pituicytes; 10^-7 M) [p mol/ml]	cAMP (M ± SEM) (rat pituicytes; 10^-8 M) [p mol/ml]	cAMP (M ± SEM) (rat pituicytes; 10^-9 M) [p mol/ml]	cAMP (M ± SEM) (rat pituicytes; 10^-10 M) [p mol/ml]	cAMP (M ± SEM) (rat pituicytes; 10^-11 M) [p mol/ml]	cAMP (M ± SEM) (rat pituicytes; 10^-12 M) [p mol/ml]
PACAP38 NH2 (HSDGIFTDSYSRYRKQMAVKKYLAAVLGKRYKQRVKNK-NH2; UniProt P18509 132-169, looked up)	3.2 ± 1.9	17.4 ± 2.4	29.8 ± 3.6						
PACAP27 NH2 [Syn.27p-NH2]	14.5 ± 3.1	51.9 ± 9.6	4.1	9.20 ± 0.20	9.20 ± 0.00	7.90 ± 0.30	4.00 ± 0.20	2.55 ± 0.15	2.05 ± 0.15
